Source: patent US20230233569A1 (Revolution Medicines, Inc., priority 2020, published 2023)
Read-outs that look alike come from different tables or passages of the source.

Tests used:
KRAS Q61H = KRAS Q61H (Homo sapiens, UniProt P01116+P62937, Q61H); test: Disruption of BRAF RBD interaction with Ras (FRET / MOA assay, with Cyclophilin A); assay type: biochemical; conditions: KRAS Q61H; read-out: KRAS Q61H FRET data IC50
Procedure, shortened: (§1)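 IC50 reflects compound-driven Ras:Cyclophilin A ternary complex displacing BRAF RBD, read as lowered TR-FRET ratio relative to DMSO after Eu anti-His (10 nM) and APC anti-GST (50 nM) detection for 1.5 h. Prior incubation 3 h, 25° C, with 12.5 nM GMPPNP-loaded Ras, 50 nM BRAF RBD, 25 μM Cyclophilin A; top compound 30 μM.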

NRAS WT = NRAS WT (Homo sapiens, UniProt P01111+P62937); test: as above; assay type: biochemical; conditions: NRAS WT; read-out: NRAS WT FRET data IC50
Chain of NRAS WT (P01111 whole entry): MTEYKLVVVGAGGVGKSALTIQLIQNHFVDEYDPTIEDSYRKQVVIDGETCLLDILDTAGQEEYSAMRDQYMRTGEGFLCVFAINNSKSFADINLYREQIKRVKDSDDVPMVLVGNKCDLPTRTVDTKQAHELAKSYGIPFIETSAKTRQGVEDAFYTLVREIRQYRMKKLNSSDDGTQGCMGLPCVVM
Chain of NRAS WT (P62937 whole entry): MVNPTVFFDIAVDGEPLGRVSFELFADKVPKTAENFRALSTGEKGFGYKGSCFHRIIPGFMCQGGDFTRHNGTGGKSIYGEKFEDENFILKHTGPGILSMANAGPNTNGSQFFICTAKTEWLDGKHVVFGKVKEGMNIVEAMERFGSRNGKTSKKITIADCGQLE
Procedure, shortened: as §1

NRAS Q61R = NRAS Q61R (Homo sapiens, UniProt P01111+P62937, Q61R); test: as above; assay type: biochemical; conditions: NRAS Q61R; read-out: NRAS Q61R FRET data IC50
Chain of NRAS Q61R (P01111 whole entry Q61R): as the sequence (P01111 whole entry) above, with Q61R counted along it
Chain of NRAS Q61R (P62937 whole entry): as the sequence (P62937 whole entry) above
Procedure, shortened: as §1

NRAS Q61K = NRAS Q61K (Homo sapiens, UniProt P01111+P62937, Q61K); test: as above; assay type: biochemical; conditions: NRAS Q61K; read-out: NRAS Q61K FRET data IC50
Chain of NRAS Q61K (P01111 whole entry Q61K): as the sequence (P01111 whole entry) above, with Q61K counted along it
Chain of NRAS Q61K (P62937 whole entry): as the sequence (P62937 whole entry) above
Procedure, shortened: as §1

KRAS G13D = KRAS G13D (Homo sapiens, UniProt P01116+P62937, G13D); test: as above; assay type: biochemical; conditions: KRAS G13D; read-out: KRAS G13D FRET data IC50
Chain of KRAS G13D (P01116 1-169 isoform P01116-2 G13D limits assumed): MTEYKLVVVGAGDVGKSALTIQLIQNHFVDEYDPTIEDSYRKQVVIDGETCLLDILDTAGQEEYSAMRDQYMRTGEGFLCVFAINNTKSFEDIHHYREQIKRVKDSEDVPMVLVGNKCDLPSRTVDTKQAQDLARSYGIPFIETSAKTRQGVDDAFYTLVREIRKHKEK
Chain of KRAS G13D (P62937 whole entry): as the sequence (P62937 whole entry) above
Procedure, shortened: (§2)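 Measured via TR-FRET after 3 h at 25 °C with compound (30 μM top, threefold serial steps, ten concentrations) plus K-Ras, Cyclophilin A and BRAF RBD, followed by 1.5 h with anti-His europium (10 nM) and anti-GST allophycocyanin (50 nM). Signal loss versus DMSO gave IC50.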

NRAS G12C = NRAS G12C (Homo sapiens, UniProt P01111+P62937, G12C); test: as above; assay type: biochemical; conditions: NRAS G12C; read-out: NRAS G12C FRET data IC50
Chain of NRAS G12C (P01111 whole entry G12C): as the sequence (P01111 whole entry) above, with G12C counted along it
Chain of NRAS G12C (P62937 whole entry): as the sequence (P62937 whole entry) above

KRAS G12D = KRAS G12D (Homo sapiens, UniProt P01116+P62937, G12D); test: as above; assay type: biochemical; conditions: read-out: KRAS G12D FRET data, IC50
Chain of KRAS G12D (P01116 1-169 isoform P01116-2 G12D limits assumed): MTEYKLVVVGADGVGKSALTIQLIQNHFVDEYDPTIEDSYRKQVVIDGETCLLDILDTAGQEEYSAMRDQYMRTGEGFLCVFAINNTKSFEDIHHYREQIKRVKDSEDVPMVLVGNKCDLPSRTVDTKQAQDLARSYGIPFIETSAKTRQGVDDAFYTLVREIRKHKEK
Chain of KRAS G12D (P62937 whole entry): as the sequence (P62937 whole entry) above
Procedure, shortened: as §2

KRAS G12C = KRAS G12C (Homo sapiens, UniProt P01116+P62937, G12C); test: as above; assay type: biochemical; conditions: read-out: KRAS G12C FRET data, IC50
Chain of KRAS G12C (P01116 1-169 isoform P01116-2 G12C): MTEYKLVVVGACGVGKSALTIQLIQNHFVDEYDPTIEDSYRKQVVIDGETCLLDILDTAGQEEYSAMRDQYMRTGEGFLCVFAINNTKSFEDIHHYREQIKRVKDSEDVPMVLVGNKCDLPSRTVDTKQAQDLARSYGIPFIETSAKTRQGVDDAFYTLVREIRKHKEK
Chain of KRAS G12C (P62937 whole entry): as the sequence (P62937 whole entry) above
Procedure, shortened: as §2

KRAS G12S = KRAS G12S (Homo sapiens, UniProt P01116+P62937, G12S); test: as above; assay type: biochemical; conditions: read-out: KRAS G12S FRET data, IC50
Chain of KRAS G12S (P01116 1-169 isoform P01116-2 G12S limits assumed): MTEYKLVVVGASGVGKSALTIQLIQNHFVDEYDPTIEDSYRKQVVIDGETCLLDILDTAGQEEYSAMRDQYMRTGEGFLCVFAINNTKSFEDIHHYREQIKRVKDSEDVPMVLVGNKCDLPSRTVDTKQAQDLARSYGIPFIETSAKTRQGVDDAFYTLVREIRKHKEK
Chain of KRAS G12S (P62937 whole entry): as the sequence (P62937 whole entry) above
Procedure, shortened: as §2

KRAS WT = KRAS WT (Homo sapiens, UniProt P01116+P62937); test: as above; assay type: biochemical; conditions: KRAS WT; read-out: KRAS WT FRET data IC50
Chain of KRAS WT (P01116 1-169 isoform P01116-2 limits assumed): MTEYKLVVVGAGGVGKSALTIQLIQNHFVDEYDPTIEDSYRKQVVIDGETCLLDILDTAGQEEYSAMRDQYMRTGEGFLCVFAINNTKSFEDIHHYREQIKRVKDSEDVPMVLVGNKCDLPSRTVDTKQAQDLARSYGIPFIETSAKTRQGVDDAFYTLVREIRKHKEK
Chain of KRAS WT (P62937 whole entry): as the sequence (P62937 whole entry) above
Procedure, shortened: as §2

KRAS G13C = KRAS G13C (Homo sapiens, UniProt P01116+P62937, G13C); test: as above; assay type: biochemical; conditions: read-out: KRAS G13C FRET data, IC50
Chain of KRAS G13C (P01116 1-169 isoform P01116-2 G13C): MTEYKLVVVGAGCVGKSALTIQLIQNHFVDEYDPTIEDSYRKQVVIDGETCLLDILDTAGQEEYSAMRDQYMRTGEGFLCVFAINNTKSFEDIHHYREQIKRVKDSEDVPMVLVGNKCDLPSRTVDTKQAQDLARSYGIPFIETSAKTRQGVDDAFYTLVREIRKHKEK
Chain of KRAS G13C (P62937 whole entry): as the sequence (P62937 whole entry) above
Procedure, shortened: as §2

KRAS G12V = KRAS G12V (Homo sapiens, UniProt P01116+P62937, G12V); test: as above; assay type: biochemical; conditions: KRAS G12V; read-out: KRAS G12V FRET data IC50
Chain of KRAS G12V (P01116 1-169 isoform P01116-2 G12V limits assumed): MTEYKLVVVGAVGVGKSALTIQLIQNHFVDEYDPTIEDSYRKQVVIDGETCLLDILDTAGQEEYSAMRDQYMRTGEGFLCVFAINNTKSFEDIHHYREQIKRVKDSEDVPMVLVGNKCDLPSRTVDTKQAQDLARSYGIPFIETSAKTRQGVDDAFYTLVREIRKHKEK
Chain of KRAS G12V (P62937 whole entry): as the sequence (P62937 whole entry) above
Procedure, shortened: as §2

NCI-H358 (K-Ras G12C) = test: CellTiter-Glo cell viability assay, 5-day treatment; assay type: cell-based; conditions: Homo sapiens, NCI-H358, 120 h
Procedure, shortened: (§3)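 Luminescence read-out after 5 days of compound exposure, with plates first brought to room temperature for roughly 30 minutes. Values are percent of averaged DMSO wells, fitted by four-parameter logistic regression.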

Capan-1 (K-Ras G12V) = test: as above; assay type: cell-based; conditions: Homo sapiens, CAPAN-1, 120 h
Procedure, shortened: as §3

[1] = 5-day treatment, read-out: H358 Cell Viability assay data (K-Ras G12C, IC50)
[2] = 5-day treatment, read-out: Capan-1 Cell Viability assay data (K-Ras G12V, IC50)

Chain of KRAS Q61H (P01116 1-169 isoform P01116-2 Q61H limits assumed): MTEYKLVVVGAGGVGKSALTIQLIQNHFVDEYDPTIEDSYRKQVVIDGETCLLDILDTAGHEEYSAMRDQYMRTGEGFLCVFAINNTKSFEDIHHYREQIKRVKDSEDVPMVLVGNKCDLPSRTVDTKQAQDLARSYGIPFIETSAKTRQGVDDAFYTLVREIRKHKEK
Chain of KRAS Q61H (P62937 whole entry): as the sequence (P62937 whole entry) above

Compound | IC50 (KRAS Q61H) [nM] | IC50 (NRAS WT) [nM] | IC50 (NRAS Q61R) [nM] | IC50 (NRAS Q61K) [nM] | IC50 (KRAS G13D) [nM] | IC50 (NRAS G12C) [nM] | IC50 (KRAS G12D) [nM] | IC50 (KRAS G12C) [nM] | IC50 (KRAS G12S) [nM] | IC50 (KRAS WT) [nM] | IC50 (KRAS G13C) [nM] | IC50 (KRAS G12V) [nM] | IC50 (NCI-H358 (K-Ras G12C); read-out: H358 Cell Viability assay data (K-Ras G12C, IC50, uM), 5-day treatment) [µM] | IC50 (Capan-1 (K-Ras G12V); read-out: Capan-1 Cell Viability assay data (K-Ras G12V, IC50, uM)) [µM] | IC50 (NCI-H358 (K-Ras G12C); [1]) [µM] | IC50 (Capan-1 (K-Ras G12V); [2]) [µM]
CCn1c(-c2cccnc2[C@H](C)OC)c2c3cc(ccc31)-c1csc(n1)C[C@H](NC(=O)[C@H](C(C)C)N(C)C(=O)N1CC3CC(C1)N3C)C(=O)N1CCC[C@H](N1)C(=O)OCC(C)(C)C2 [Example A284] | 100 to 1000 | 100 to 1000 | 1000 to 10000 | 100 to 1000 | 100 to 1000 | 100 to 1000 | 1000 to 10000 | 100 to 1000 | 100 to 1000 | 100 to 1000 | 100 to 1000 | 1000 to 10000 | 0.1 to 1 | 0.1 to 1 | – | –
CCn1c(-c2cccnc2[C@H](C)OC)c2c3cc(ccc31)-c1csc(n1)C[C@H](NC(=O)[C@H]1C[C@@H]1C)C(=O)N1CCC[C@H](N1)C(=O)OCC(C)(C)C2 [Example A286, (1S,2S)—N-((6^3S,4S,Z)-1^1-ethyl-1^2-(2-((S)-1-methoxyethyl)pyridin-3-yl)-10,10-dimethyl-5,7-dioxo-6^1,6^2,6^3,6^4,6^5,6^6-hexahydro-1^1H-8-oxa-2(4,2)-thiazola-1(5,3)-indola-6(1,3)-pyridazinacycloundecaphane-4-yl)-2-methylcyclopropane-1-carboxamide] | 100 to 1000 | 100 to 1000 | 100 to 1000 | 100 to 1000 | 100 to 1000 | 100 to 1000 | 100 to 1000 | 100 to 1000 | 100 to 1000 | 100 to 1000 | 100 to 1000 | 100 to 1000 | – | – | 0.01 to 0.1 | 0.1 to 1
CCn1c(-c2cccnc2[C@H](C)OC)c2c3cc(ccc31)-c1cc(O)cc(c1)C[C@H](NC(=O)[C@H](C(C)C)N(C)C(=O)[C@H]1C[C@@H]1C)C(=O)N1CCC[C@H](N1)C(=O)OCC(C)(C)C2 [Example A287] | 10 to 100 | 10 to 100 | 100 to 1000 | 100 to 1000 | 100 to 1000 | 100 to 1000 | 100 to 1000 | 100 to 1000 | 100 to 1000 | 10 to 100 | 100 to 1000 | 100 to 1000 | – | – | 0.1 to 1 | 0.1 to 1
CCn1c(-c2cccnc2[C@H](C)OC)c2c3cc(ccc31)-c1csc(n1)C[C@H](NC(=O)[C@H](C(C)C)N(C)C(=O)N1CC(n3nc(C)cc3C)C1)C(=O)N1CCC[C@H](N1)C(=O)OCC(C)(C)C2 [Example A297] | 100 to 1000 | 100 to 1000 | 100 to 1000 | 100 to 1000 | 1000 to 10000 | 100 to 1000 | 1000 to 10000 | 100 to 1000 | 100 to 1000 | 100 to 1000 | 100 to 1000 | 100 to 1000 | – | – | 0.01 to 0.1 | 0.1 to 1
CCn1c(-c2cccnc2[C@H](C)OC)c2c3cc(ccc31)-c1csc(n1)C[C@H](NC(=O)[C@H](C(C)C)N(C)C(=O)N1CC(C)(OC)C1)C(=O)N1CCC[C@H](N1)C(=O)OCC(C)(C)C2 [Example A299] | 100 to 1000 | 100 to 1000 | 100 to 1000 | 100 to 1000 | 1000 to 10000 | 100 to 1000 | 1000 to 10000 | 100 to 1000 | 1000 to 10000 | 100 to 1000 | 1000 to 10000 | 1000 to 10000 | – | – | 0.01 to 0.1 | 0.1 to 1
CCn1c(-c2cccnc2[C@H](C)OC)c2c3cc(ccc31)-c1csc(n1)C[C@H](NC(=O)C1(F)COC1)C(=O)N1CCC[C@H](N1)C(=O)OCC(C)(C)C2 [Example A320] | 100 to 1000 | 100 to 1000 | 1000 to 10000 | 100 to 1000 | 1000 to 10000 | 100 to 1000 | 1000 to 10000 | 100 to 1000 | 100 to 1000 | 100 to 1000 | 100 to 1000 | 100 to 1000 | – | – | 1 to 10 | 0.1 to 1
